PMC2875737, “Determination of drug-like properties of a novel antileishmanial compound: In vitro absorption, distribution, metabolism, and excretion studies” (Indian Journal of Pharmacology, 2009)
Values after ≈ are worked out from the molar mass of the structure shown. Values joined by “and” are separate entries in the source; they are usually repeats but may differ in a detail not shown here. Identical values can stand only once. Counter-ions that a name gives are not always drawn. Each block holds one compound with its values, some of them ahead of it.

Experiments:
[1] = test system: Leishmania donovani; conditions: cited from earlier work
[2] = Plasma protein binding by equilibrium dialysis; conditions: human
Method: The binding of compound to human plasma was determined using equilibrium dialysis with 6-hour incubation with constant shaking at 37°C as per the method described by Kaplita and Liu.[4] The initial concentration of the compound used was 10 μM (DMSO ≤1%). Quantitations were done by HPLC.

[3] = test system: human plasma protein; set-up: method as in PMID 14567798, PMID 11841071; conditions: cited from earlier work
[4] = set-up: method as in PMID 14567798, PMID 11841071; conditions: PBS pH 7.4; cited from earlier work
[5] = physchem; conditions: for solubility at 2 h: 25 °C, pH 7.4, aqueous buffer, kinetic from dmso stock
Method: A 4 μl of 25 mM stock (DMSO) of S-4 was diluted to 200 μl with PBS (pH 7.4) and incubated at 25°C for 2 hours with constant shaking. The undissolved compound, if any, was filtered through the PVDF membrane filter (Millipore, MA). To 120 μl of the filtrate, 80 μl of acetonitrile was added and mixed thoroughly. The concentration of S-4 in the filtrate was determined spectrophotometrically from linearity (5-400μM) of the compound prepared in PBS containing 40% acetonitrile. The observed solubility result was multiplied by 200/120 to account for the acetonitrile addition in the test filtrate.

[6] = Distribution coefficient Log D in cyclohexane/PBS pH 7.4; type: physicochemical; conditions: PBS pH 7.4, average of three experiments
Method: Log D in cyclohexane/PBS was performed following the similar method as done for Log D in octanol/PBS. Here, 5 mM compound stock was used to prevent precipitation problem with this system and volumes of cyclohexane were 150, 200, 400, and 800 μl.

[7] = cited from earlier work
[8] = PAMPA standards; cited from earlier work
[9] = set-up: method as in PMID 14567798, PMID 11841071; conditions: cited from earlier work
[10] = Distribution coefficient (Log D) in octanol/PBS pH 7.4
[11] = Parallel artificial membrane permeability assay (PAMPA); type: in vitro ADME
Method: Millipore acceptor and donor plate (Cat No: MAPB310 and MASSACCEPTOR) were used in the study. […] Incubation was carried out for 16 hours at room temperature in a water-saturated chamber to avoid evaporation from donor wells. […] To a 200 μl acceptor sample, a 100 μl donor solution was added, mixed properly, and this mixture was termed as “equilibrium.” The absorbance of the equilibrium was also determined. Five standard compounds of different permeability (high: […] (1) Calculation: […] where C = (VD × VA)/[(VD + VA)× Area (cm^2) × porosity × time (seconds)] Where VD = volume of donor (ml), VA = volume of acceptor (ml). A linear graph was plotted with observed and reported values for the standard drugs. The experimental method was considered valid for permeability ranking if linear correlation coefficient (R^2) was more than 0.95.

[12] = Chemical stability in PBS pH 7.4, simulated gastric fluid and simulated intestinal fluid; type: physicochemical
Method: A 100-μM solution of S-4 was prepared in phosphate buffered saline (PBS), pH 7.4, from a stock of 25 mM in DMSO and was kept at 25°C for 24 hours. Percentage stability was determined based on chromatographic peak area of the sample kept for 24 hours and that of 0 hour (freshly prepared and injected) sample. All the samples were prepared in triplicate.
Similar studies were carried out at 37°C replacing PBS with simulated gastric fluid (SGF) and simulated intestinal fluid (SIF) which were prepared following United States Pharmacopoeia, and stability was checked for upto 2 hours for SGF and 4 hours for SIF.

[13] = test system: Leishmania donovani; set-up: method as in ref 11, 12 = [11]; PMID 11937327; doi:10.1016/s0968-0896(02)00046-9; 11 Sahu NP Pal C Mandal NB Banerjee S Raha M Kundu AP Synthesis of a novel quinoline derivative, 2-(2-Methylquinolin-4ylamino)-N-phenylacetamide: A potential antileishmanial agent Bioorg Med Chem 2002 || [12]; 12 Sahu NP Mondal NB Banerjee S Raha R Chakraborti G Basu A Indian patent No. 191818 2004; conditions: cited from earlier work
[14] = test system: rat liver microsomes; experiment: Metabolism by liver microsomal enzymes; type: in vitro ADME; conditions: rat liver microsomes 0.5 mg protein/ml, 10 μM, 1 hour, 37°C, NADPH regeneration system; ± SEM
Method: Ethical clearance was obtained from Animal Ethics Committee of Indian Institute of Chemical Biology for use of animals for the present study. […] The % stability (% compound remaining after metabolism) was calculated as follows:
(3) % Compound remaining=100×(peak area of 1 hour sampl/peak area of 0 hour sample)
For 0 hour sample, the compound was added after addition of ice-cold acetonitrile and then vortexed, followed by centrifugation as mentioned above.

[15] = set-up: method as in ref 11 = [11]; PMID 11937327; doi:10.1016/s0968-0896(02)00046-9; 11 Sahu NP Pal C Mandal NB Banerjee S Raha M Kundu AP Synthesis of a novel quinoline derivative, 2-(2-Methylquinolin-4ylamino)-N-phenylacetamide: A potential antileishmanial agent Bioorg Med Chem 2002; conditions: cited from earlier work
[16] = simulated gastric fluid (SGF), 37°C, 2 hours
[17] = simulated intestinal fluid (SIF), 37°C, 4 hours

Compound: O=C(Nc1ccccc1Cc1nc2ccccc2cc1-c1c[nH]c2ccccc12)C(Cl)Cl [2-(2′′-dichloroacetamidobenzyl)-3-(3′-indoyl)-quinoline]
Antileishmanial activity [1]: significant antileishmanial activity

Compound: Cn1c(=O)c2c(ncn2C)n(C)c1=O [Caffeine]
fraction unbound at 6 h, 10 μM [2]: 0.593 | Percentage of plasma protein binding, reported value [3]: 29-43%

solubility at 2 h [5]: > 400 µM
Compound: O=C(O)Cc1ccccc1Nc1c(Cl)cccc1Cl [Diclofenac Sodium]
Solubility, reported value [4]: > 400 µM

Solubility ([5]; pH 7.4): 18.94 ± 1.00 µM (≈ 5.08 µg/mL)
Compound: CC/C(=C(/CC)c1ccc(O)cc1)c1ccc(O)cc1 [Diethylstilbesterol]
Solubility, reported value [4]: 5 to 20 µM

logD hydrocarbon water ([6]; cyclohexane/PBS): 0.52 | solubility at 2 h [5]: 48.5 ± 3.21 µM (≈ 18.2 µg/mL)
Compound: O=C(CCCN1CCC(O)(c2ccc(Cl)cc2)CC1)c1ccc(F)cc1 [Haloperidol]
Solubility, reported value [4]: 40 to 63 µM | Log D cyclohexane/PBS, reported value [7]: 0.46

fraction unbound at 6 h, 10 μM [2]: 0.493
Compound: CN(Cc1cnc2nc(N)nc(N)c2n1)c1ccc(C(=O)N[C@@H](CCC(=O)O)C(=O)O)cc1 [Methotrexate]
Permeability ranking of standard compounds [8]: very low | Percentage of plasma protein binding, reported value [3]: 35-57%

logD [10]: -0.25
Compound: COCCc1ccc(OCC(O)CNC(C)C)cc1 (centres unmarked) [Metoprolol tartrate]
Log D octanol/PBS, reported value [9]: −0.30

Compound: CC(C)NCC(O)COc1cccc2ccccc12.Cl (centres unmarked) [Propranolol HCl]
Permeability ranking of standard compounds [8]: high | Percentage of plasma protein binding, reported value [3]: 80-93%

fraction unbound at 6 h, 10 μM ([2]; plasma): 0.852
Compound: CNC(=C[N+](=O)[O-])NCCSCc1ccc(CN(C)C)o1 [Ranitidine HCl]
Percentage of plasma protein binding, reported value [3]: 10-19%

Papp at 16 h, 250 μM ([11]; PBS pH 7.4 (5% DMSO), 16 hours, room temperature, ± SEM, read-out: Log Pe (converted)): 2.95 ×10⁻⁶ cm/s | Permeability ranking ([11]; ranking against standard drugs): medium | logD hydrocarbon water ([6]; cyclohexane/PBS): -1.33 | Stability (% remaining) ([12]; 100 μM in PBS pH 7.4, 25°C, 24 hours, HPLC): 99.16 ± 1.32% | remaining at 24 h, 100 μM ([12]; phosphate buffered saline, pH 7.4, 100 μM in PBS pH 7.4, 25°C, 24 hours, HPLC): > 95% | Stability (% remaining) [12, 16]: 101.19± 0.76% | remaining at 2 h, 100 μM [12, 16]: > 95% | Stability (% remaining) [12, 17]: 97.70 ± 0.15% | remaining at 4 h, 100 μM [12, 17]: > 95% | logD [10]: 0.54 | fraction unbound at 6 h, 10 μM [2]: 0.212 | % Parent compound remaining, result [14]: 36.07% and 36.07 ± 4.15% | solubility at 2 h ([5]; PBS): 300 ± 6.42 µM (≈ 87.3 µg/mL)
Compound: Cc1cc(NCC(=O)Nc2ccccc2)c2ccccc2n1 [S-4, 2-(2-methylquinolin-4-ylamino)-N-phenylacetamide]
Reduction of parasite burden in spleen and liver compared with sodium antimony gluconate [13]: significantly more effective than sodium antimony gluconate | Toxicity to different organs [15]: no alarming sign to different organs tested

logD hydrocarbon water [6]: -1.28 | fraction unbound at 6 h, 10 μM ([2]; plasma): 0.0179
Compound: CC(=O)CC(c1ccccc1)c1c(O)c2ccccc2oc1=O (centres unmarked) [Warfarin]
Permeability ranking of standard compounds [8]: medium | Log D cyclohexane/PBS, reported value [7]: −1.31 | Percentage of plasma protein binding, reported value [3]: 99%

Compound: NC(=O)N1c2ccccc2C=Cc2ccccc21 [carbamazepine]
Permeability ranking of standard compounds [8]: high
